The values that follow come from patent US20240150377A1, “MODULATORS OF CYSTIC FIBROSIS TRANSMEMBRANE CONDUCTANCE REGULATOR” (VERTEX PHARMACEUTICALS INCORPORATED, priority 2020, published 2024).

The target of the assay is T1, CFTR (Homo sapiens, UniProt P13569, DEL508-508).
T1 construct: endogenous in cells; host or cells: primary human bronchial epithelial cells from CF subjects (F508del/MF-HBE), differentiated at air-liquid interface
The assay can be described thus: HBE assay: Ussing chamber assay of CFTR-mediated short-circuit currents. The format is cell-based. Particulars: for EC50: read-out: HBE EC50. The procedure: 1. Ussing Chamber Assay of CFTR-Mediated Short-Circuit Currents
Ussing chamber experiments were performed using human bronchial epithelial (HBE) cells derived from CF subjects heterozygous for F508del and a minimal function CFTR mutation (F508del/MF-HBE) and cultured as previously described (Neuberger T, Burton B, Clark H, Van Goor F Methods Mol Biol 2011:741:39-54). After four days the apical media was removed, and the cells were grown at an air liquid interface for >14 days prior to use.
(§1) To isolate the CFTR-mediated short-circuit (ISC) current, F508del/MF-HBE grown on Costar® Snapwell™ cell culture inserts were mounted in an Ussing chamber and the transepithelial ISC was measured under voltage-clamp recording conditions (Vhold=0 mV) at 37° C. The basolateral solution contained (in mM) 145 NaCl, 0.83 K2HPO4, 3.3 KH2PO4, 1.2 MgCl2, 1.2 CaCl2), 10 Glucose, 10 HEPES (pH adjusted to 7.4 with NaOH) and the apical solution contained (in mM) 145 NaGluconate, 1.2 MgCl2, 1.2 CaCl2), 10 glucose, 10 HEPES (pH adjusted to 7.4 with NaOH) and 30 μM amiloride to block the epithelial sodium channel. Forskolin (20 μM) was added to the apical surface to activate CFTR, followed by apical addition of a CFTR inhibitor cocktail consisting of BPO, GlyH-101, and CFTR inhibitor 172 (each at 20 μM final assay concentration) to specifically isolate CFTR currents. The CFTR-mediated ISC (μA/cm^2) for each condition was determined from the peak forskolin response to the steady-state current following inhibition.
2. Identification of Corrector Compounds
The activity of the CFTR corrector compounds on the CFTR-mediated ISC was determined in Ussing chamber studies as described above. The F508del/MF-HBE cell cultures were either incubated with the corrector compounds at a range of concentrations in combination with 1 μM Ivacaftor or were incubated with the corrector compounds at a single fixed concentration of 10 μM in combination with 1 μM Ivacaftor for 18-24 hours at 37° C. and in the presence of 20% human serum. The concentration of corrector compounds with 1 μM Ivacaftor during the 18-24 hours incubations was kept constant throughout the Ussing chamber measurement of the CFTR-mediated ISC to ensure compounds were present throughout the entire experiment.
Ussing Chamber Assay of CFTR-mediated short-circuit currents
Ussing chamber experiments were performed using human bronchial epithelial (HIBE) cells derived from CF subjects heterozygous for F508del and a minimal function CFTR mutation (F508del/MIF-HIBE) and cultured as previously described (Neuberger T, Burton B, Clark H, Van Goor F Methods Mol Biol 2011:741:39-54). After four days the apical media was removed, and the cells were grown at an air liquid interface for >14 days prior to use.
as §1, with “KH2PO4,” for “K2HPO4,”
Identification of Corrector Compounds

Setting [1] is: Table 12, at 10 μM, read-out: HBE Activity at 10 μM (%).
[2] abbreviates: Table 10, at 10 μM, read-out: HBE activity at 10 (μM) (%).
[3] abbreviates: Table 10, read-out: HBE Max activity (%).
Where [4] appears, read: Table 11, read-out: HBE Max Activity (%).
Where [5] appears, read: HBE assay, 10 μM, read-out: HBE Activity at 10 μM (%).
[6] abbreviates: Table 11, at 10 μM, read-out: HBE Activity at 10 μM (%).
The mark [7] stands for this setting: Table 13, read-out: HBE Max Activity (%).
[8] abbreviates: Table 13, at 10 μM, read-out: HBE Activity at 10 μM (%).
Setting [9] is: Table 12, read-out: HBE Max Activity (%).

Like-named read-outs stand apart in the source and are kept apart here.

T1 sequence (P13569 with tags, fused parts or gaps DEL508-508): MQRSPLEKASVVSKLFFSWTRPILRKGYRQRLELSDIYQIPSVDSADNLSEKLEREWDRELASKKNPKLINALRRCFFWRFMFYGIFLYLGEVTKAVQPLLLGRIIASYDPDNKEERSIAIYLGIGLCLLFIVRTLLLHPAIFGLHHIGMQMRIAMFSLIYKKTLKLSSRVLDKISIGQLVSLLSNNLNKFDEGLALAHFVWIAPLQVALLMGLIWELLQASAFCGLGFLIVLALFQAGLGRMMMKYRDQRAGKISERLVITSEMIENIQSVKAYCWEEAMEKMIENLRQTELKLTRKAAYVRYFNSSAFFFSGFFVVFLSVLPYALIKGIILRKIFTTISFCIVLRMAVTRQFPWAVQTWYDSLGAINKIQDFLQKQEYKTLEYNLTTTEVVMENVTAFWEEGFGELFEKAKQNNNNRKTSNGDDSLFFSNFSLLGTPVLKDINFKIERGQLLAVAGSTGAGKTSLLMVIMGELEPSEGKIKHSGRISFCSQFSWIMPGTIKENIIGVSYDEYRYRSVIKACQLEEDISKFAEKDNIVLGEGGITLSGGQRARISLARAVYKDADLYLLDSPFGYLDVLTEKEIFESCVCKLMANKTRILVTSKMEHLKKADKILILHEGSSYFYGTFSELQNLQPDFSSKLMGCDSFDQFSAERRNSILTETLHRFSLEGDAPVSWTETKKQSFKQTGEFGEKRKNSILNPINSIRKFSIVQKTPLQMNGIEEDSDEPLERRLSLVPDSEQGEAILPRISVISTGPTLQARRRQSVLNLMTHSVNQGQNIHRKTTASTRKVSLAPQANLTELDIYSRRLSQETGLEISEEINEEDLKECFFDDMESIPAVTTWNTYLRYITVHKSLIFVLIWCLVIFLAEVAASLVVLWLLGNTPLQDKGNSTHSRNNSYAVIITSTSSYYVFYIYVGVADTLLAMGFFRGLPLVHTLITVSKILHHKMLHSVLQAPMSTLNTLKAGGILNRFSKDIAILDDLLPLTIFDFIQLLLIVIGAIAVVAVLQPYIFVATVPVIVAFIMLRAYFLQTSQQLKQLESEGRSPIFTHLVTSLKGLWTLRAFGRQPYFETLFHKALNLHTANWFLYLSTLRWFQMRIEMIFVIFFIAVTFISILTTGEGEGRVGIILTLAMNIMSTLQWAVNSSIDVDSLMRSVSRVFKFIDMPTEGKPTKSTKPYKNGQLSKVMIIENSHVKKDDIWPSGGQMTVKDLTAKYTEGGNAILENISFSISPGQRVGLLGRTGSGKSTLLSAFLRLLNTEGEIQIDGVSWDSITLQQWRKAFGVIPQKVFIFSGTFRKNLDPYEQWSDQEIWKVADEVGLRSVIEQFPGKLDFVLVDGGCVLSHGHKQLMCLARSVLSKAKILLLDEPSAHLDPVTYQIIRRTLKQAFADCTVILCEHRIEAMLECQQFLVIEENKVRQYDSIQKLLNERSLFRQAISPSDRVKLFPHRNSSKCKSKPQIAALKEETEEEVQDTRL

With `Cc1cccc(C)c1-c1cc2nc(n1)NS(=O)(=O)c1cccc(c1)C(=O)N(Cc1cncc(N(C)C(C(=O)O)C(C)C)n1)[C@H](CC(C)(C)C)CO2` (stereo partly shown) [Compound 243], the activation at 10 µM under setting [1] is over 600%.

As to `Cc1cccc(C)c1-c1nc2nc(c1C)OC[C@@H](CC(C)(C)C)N1Cc3cc(F)c(O)c(F)c3OC1c1cccc(c1)S(=O)(=O)N2` (stereo partly shown) [Compound 763], the activation at 10 µM under setting [2] was over 60%. Consider `CNC(=O)COc1ccccc1CN1C(=O)c2cccc(c2)S(=O)(=O)Nc2nc(cc(-c3c(C)cccc3C)n2)OC[C@H]1CC(C)(C)C` [Compound 776], for which, where the note is “Table 10”, the EC50 was under 1 µM. Further, the Emax under setting [3] is over 60%. Turning to `Cc1cccc(C)c1-c1cc2nc(n1)NS(=O)(=O)c1cccc(c1)C(=O)N(Cc1nccc(N(C)C3CC4(CC4)C3)n1)[C@H](CC(C)(C)C)CO2` [Compound 615], the EC50 (Table 11) was under 1 µM. Moreover, the Emax under setting [4] was over 60%. For `COC[C@H]1COCCN1c1cccc(CN2C(=O)c3cccc(c3)S(=O)(=O)Nc3nc(cc(-c4c(C)cccc4C)n3)OC[C@H]2CC(C)(C)C)n1` [Compound 1399], the activation at 10 µM under setting [5] was over 60%. Consider `Cc1cccc(C)c1-c1cc2nc(n1)NS(=O)(=O)c1cccc(c1)C(=O)N(Cc1cccc(C3=CCOCC3)n1)[C@H](CC(C)(C)C)CO2` [Compound 733], for which the activation at 10 µM under setting [6] was over 60%. Also, the EC50 (Table 11) was under 1 µM. For the same compound, the Emax under setting [4] is over 60%.

With `Cc1cccc(C)c1-c1cc2nc(n1)NS(=O)(=O)c1cccc(c1)C(=O)N(Cc1cccc(N3CCC34CCC(C)(C)C4)n1)[C@H](CC(C)(C)C)CO2` (stereo partly shown) [Compound 531], the EC50 (Table 13) is under 1 µM. Further, the Emax under setting [7] is over 60%. Turning to `CC(C)=C(C)c1cccc(CN2C(=O)c3cccc(c3)S(=O)(=O)Nc3nc(cc(-c4c(C)cccc4C)n3)OC[C@H]2CC(C)(C)C)n1` [Compound 577], the activation at 10 µM under setting [1] is over 600%. Regarding `Cc1cccc(C)c1-c1cc2nc(n1)NS(=O)(=O)c1cccc(c1)C(=O)N(Cc1ccc(C3CC3)cn1)[C@H](CC(C)(C)C)CO2` [Compound 252], the EC50 (Table 13) was under 1 µM. Further, under setting [7], the Emax is over 60%. For `Cc1cccc(C)c1-c1cc2nc(n1)NS(=O)(=O)c1cccc(c1)C(=O)N(Cc1ccc(N3CCC(C(C)(C)O)CC3)cn1)[C@H](CC(C)(C)C)CO2` [Compound 254], the activation at 10 µM under setting [8] was over 600%.

As to `CC(=O)Nc1cnc(CN2C(=O)c3cccc(c3)S(=O)(=O)Nc3nc(cc(-c4c(C)cccc4C)n3)OC[C@H]2CC(C)(C)C)nc1` [Compound 1513], the activation at 10 µM under setting [5] is over 60%. Take `Cc1cccc(C)c1-c1cc2nc(n1)NS(=O)(=O)c1cccc(c1)C(=O)N(Cc1ccn(C3CCC3)n1)[C@H](CC(C)(C)C)CO2` [Compound 461]: under “Table 12”, the EC50 is under 1 µM. In addition, the Emax under setting [9] was over 60%. In the case of `Cc1cccc(C)c1-c1cc2nc(n1)NS(=O)(=O)c1cccc(c1)C(=O)N(CC1CCCCC1)[C@H](CC(C)(C)C)CO2` [Compound 832], the activation at 10 µM under setting [2] was over 60%. For the compound `Cc1cccc(C)c1-c1cc2nc(n1)NS(=O)(=O)c1cccc(c1)C(=O)N(Cc1ccc(N3CC(=O)NC3=O)cc1)[C@H](CC(C)(C)C)CO2` [Compound 146, 1-[4-[[(11R)-6-(2,6-Dimethylphenyl)-11-(2,2-dimethylpropyl)-2,2,13-trioxo-9-oxa-2λ^6-thia-3,5,12,19-tetrazatricyclo[12.3.1.14,8]nonadeca-1(18),4(19),5,7,14,16-hexaen-12-yl]methyl]phenyl]imidazolidine-2,4-dione], the EC50 (Table 10) was 1 to 3 µM. For the same compound, the Emax under setting [3] is over 60%. As for `Cc1cccc(C)c1-c1cc2nc(n1)NS(=O)(=O)c1cccc(c1)C(=O)N(Cc1nc(N(C)C(C)C)cc(C(F)(F)F)n1)[C@H](CC(C)(C)C)CO2` [Compound 326], the activation at 10 µM under setting [1] was over 600%. For `COCCCNc1cccc(CN2C(=O)c3cccc(c3)S(=O)(=O)Nc3nc(cc(-c4c(C)cccc4C)n3)OC[C@H]2CC(C)(C)C)n1` [Compound 472], the activation at 10 µM under setting [2] is over 60%. Further, under setting [3], the Emax is over 60%. Turning to `Cc1cccc(C)c1-c1cc2nc(n1)NS(=O)(=O)c1cccc(c1)C(=O)N(Cc1ccc(OCCC(C)(C)C)cn1)[C@H](CC(C)(C)C)CO2` [Compound 746], the activation at 10 µM under setting [6] was over 60%. Take `Cc1cccc(C)c1-c1cc2nc(n1)NS(=O)(=O)c1cccc(c1)C(=O)N(CC(=O)NC1CCC(C)(C)CC1)[C@H](CC(C)(C)C)CO2` [Compound 179]: under setting [8], the activation at 10 µM is over 600%. Turning to `Cc1cccc(C)c1-c1cc2nc(n1)NS(=O)(=O)c1cccc(c1)C(=O)N(CC(=O)NC1CC3(CCC3)C1)[C@H](CC(C)(C)C)CO2` [Compound 171], the activation at 10 µM under setting [8] is over 600%. `Cc1cccc(C)c1-c1cc2nc(n1)NS(=O)(=O)c1cccc(c1)C(=O)N(Cc1ncc(N3CC4(CCOC4)C3)cn1)[C@H](CC(C)(C)C)CO2` [Compound 1054]: under “Table 13”, the EC50 is under 1 µM. The Emax under setting [7] is over 60%. With `Cc1cccc(C)c1-c1cc2nc(n1)NS(=O)(=O)c1cccc(c1)C(=O)N(Cc1nc(N(C)C(C)C)ccc1C(F)(F)F)[C@H](CC(C)(C)C)CO2` [Compound 458], the activation at 10 µM under setting [1] was over 600%.

For the compound `Cc1cccc(C)c1-c1cc2nc(n1)NS(=O)(=O)c1cccc(c1)C(=O)N(CC1CCCCO1)[C@H](CC(C)(C)C)CO2` (stereo partly shown) [Compound 833], the Emax under setting [3] is over 60%. Consider `Cc1cccc(C)c1-c1cc2nc(n1)NS(=O)(=O)c1cccc(c1)C(=O)N(Cc1ccc(OC(C)C)cn1)[C@H](CC(C)(C)C)CO2` [Compound 744], for which, for the setting “Table 11”, the EC50 is under 1 µM. For the same compound, the Emax under setting [4] is over 60%.

For `Cc1cccc(C)c1-c1cc2nc(n1)NS(=O)(=O)c1cccc(c1)C(=O)N(Cc1ccc(N3CCC(C)(C)C3)cn1)[C@H](CC(C)(C)C)CO2` [Compound 609], the EC50 (Table 11) fell in the range of 1 to 3 µM. For the same compound, under setting [4], the Emax was over 60%.

As for `Cc1cccc(C)c1-c1cc2nc(n1)NS(=O)(=O)c1cccc(c1)C(=O)N(Cc1ccnc(CC(C)C)n1)[C@H](CC(C)(C)C)CO2` [Compound 594], the EC50 (Table 12) is under 1 µM. Further, the Emax under setting [9] is over 60%. The like results for `Cc1cccc(C(C)C)c1-c1cc2nc(n1)NS(=O)(=O)c1cccc(c1)C(=O)N(Cc1cnc(C3CCOCC3)cn1)[C@H](CC(C)(C)C)CO2` [Compound 1064] were, in that order, under 1 µM and over 60%. As for `Cc1cccc(C)c1-c1cc2nc(n1)NS(=O)(=O)c1cccc(c1)C(=O)N(Cc1cncc(N(C)CC(C)(C)C)n1)[C@H](CC(C)(C)C)CO2` [Compound 62, (11R)-6-(2,6-Dimethylphenyl)-11-(2,2-dimethylpropyl)-12-({6-[(2,2-dimethylpropyl)(methyl)amino]pyrazin-2-yl}methyl)-9-oxa-2λ^6-thia-3,5,12,19-tetraazatricyclo[12.3.1.14,8]nonadeca-1(18),4,6,8(19),14,16-hexaene-2,2,13-trione], under “Table 11”, the EC50 is under 1 µM. For the same compound, the Emax under setting [4] was over 60%. With `Cc1cc(N(C)C(C)C)nc(CN2C(=O)c3cccc(c3)S(=O)(=O)Nc3nc(cc(-c4c(C)cccc4C)n3)OC[C@H]2CC(C)(C)C)n1` [Compound 323], under setting [1], the activation at 10 µM is over 600%.

What is called EC50 is the concentration that produces a half-maximal response.
